From ChEMBL document CHEMBL1909046, “DrugMatrix in vitro pharmacology data”

Key:
[1] = biological target: T1, Alpha-1B adrenergic receptor (Rattus norvegicus, UniProt P15823); test: DRUGMATRIX: Alpha-1B adrenergic receptor radioligand binding (ligand: prazosin); format: cell membranes, Wistar, Liver, Membrane; details: Not Active = under 50% inhibition at 10 µM
T1 sequence (P15823 whole entry): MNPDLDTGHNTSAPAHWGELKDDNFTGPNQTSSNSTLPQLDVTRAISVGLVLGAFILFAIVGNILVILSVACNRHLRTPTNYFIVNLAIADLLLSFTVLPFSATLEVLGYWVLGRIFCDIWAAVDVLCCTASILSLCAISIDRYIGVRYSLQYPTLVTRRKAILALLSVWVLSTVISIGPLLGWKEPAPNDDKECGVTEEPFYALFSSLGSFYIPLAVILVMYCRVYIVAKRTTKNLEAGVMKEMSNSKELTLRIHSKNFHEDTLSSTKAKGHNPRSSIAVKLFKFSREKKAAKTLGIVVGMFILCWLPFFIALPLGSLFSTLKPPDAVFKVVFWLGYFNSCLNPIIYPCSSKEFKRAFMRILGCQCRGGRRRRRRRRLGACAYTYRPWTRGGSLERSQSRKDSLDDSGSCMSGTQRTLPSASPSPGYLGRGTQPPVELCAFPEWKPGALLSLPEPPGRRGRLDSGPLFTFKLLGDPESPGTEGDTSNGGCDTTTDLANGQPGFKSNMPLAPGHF

[2] = biological target: T2, 5-hydroxytryptamine receptor 2C (Homo sapiens, UniProt P28335); test: DRUGMATRIX: Serotonin (5-Hydroxytryptamine) 5-HT2C radioligand binding (ligand: [3H] Mesulergine); format: cell membranes, CHO-K1, Membrane; details: Not Active = under 50% inhibition at 10 µM
T2 sequence (P28335 whole entry): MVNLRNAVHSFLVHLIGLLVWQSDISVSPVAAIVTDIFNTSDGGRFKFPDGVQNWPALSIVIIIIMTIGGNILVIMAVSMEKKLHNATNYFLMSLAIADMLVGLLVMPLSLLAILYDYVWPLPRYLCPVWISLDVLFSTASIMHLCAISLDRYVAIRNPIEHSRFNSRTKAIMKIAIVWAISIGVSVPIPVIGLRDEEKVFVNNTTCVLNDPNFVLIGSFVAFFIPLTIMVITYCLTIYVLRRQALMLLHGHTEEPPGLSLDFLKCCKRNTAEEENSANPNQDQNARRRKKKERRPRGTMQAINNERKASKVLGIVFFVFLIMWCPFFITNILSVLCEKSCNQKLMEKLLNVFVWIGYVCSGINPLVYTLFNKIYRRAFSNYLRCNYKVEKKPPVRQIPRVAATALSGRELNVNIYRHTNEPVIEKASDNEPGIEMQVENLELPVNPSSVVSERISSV

[3] = biological target: T3, Vasoactive intestinal polypeptide receptor 1 (Homo sapiens, UniProt P32241); format: cell membranes, Membrane; details: ht-29; note: in other assays of this panel Not Active means under 50% inhibition at 10 µM
T3 sequence (P32241 whole entry): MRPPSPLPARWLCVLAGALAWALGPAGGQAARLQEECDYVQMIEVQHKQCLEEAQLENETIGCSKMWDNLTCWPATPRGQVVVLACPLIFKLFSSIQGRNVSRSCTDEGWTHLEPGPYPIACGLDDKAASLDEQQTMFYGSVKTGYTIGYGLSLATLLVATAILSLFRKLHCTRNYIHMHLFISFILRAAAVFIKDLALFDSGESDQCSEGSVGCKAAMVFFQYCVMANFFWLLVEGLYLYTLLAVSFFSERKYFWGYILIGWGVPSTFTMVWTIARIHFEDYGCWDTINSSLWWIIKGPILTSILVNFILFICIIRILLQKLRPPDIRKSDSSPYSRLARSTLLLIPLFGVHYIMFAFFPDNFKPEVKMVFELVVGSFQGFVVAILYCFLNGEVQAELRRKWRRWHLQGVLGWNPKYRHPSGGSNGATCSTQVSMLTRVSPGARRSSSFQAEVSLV

[4] = biological target: T4, Endothelin-1 receptor (Homo sapiens, UniProt P25101); format: cell membranes, Membrane; details: cho-k1; note: in other assays of this panel Not Active means under 50% inhibition at 10 µM
T4 sequence (P25101 whole entry): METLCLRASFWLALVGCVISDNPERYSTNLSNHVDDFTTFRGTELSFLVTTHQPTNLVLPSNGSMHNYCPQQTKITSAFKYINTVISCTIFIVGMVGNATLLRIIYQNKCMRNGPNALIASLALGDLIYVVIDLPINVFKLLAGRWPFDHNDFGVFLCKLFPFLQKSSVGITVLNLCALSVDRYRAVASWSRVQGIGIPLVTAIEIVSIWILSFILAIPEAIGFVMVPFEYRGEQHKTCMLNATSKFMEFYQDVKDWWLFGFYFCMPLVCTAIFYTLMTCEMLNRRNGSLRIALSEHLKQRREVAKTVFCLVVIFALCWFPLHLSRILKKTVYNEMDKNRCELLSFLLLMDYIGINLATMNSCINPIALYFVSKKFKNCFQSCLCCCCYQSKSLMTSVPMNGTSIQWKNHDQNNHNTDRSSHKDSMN

[5] = DRUGMATRIX: Phosphodiesterase PDE3 enzyme inhibition (substrate: [3H]cAMP + cAMP); format: tissue-based, Homo sapiens; details: platelet; Not Active = under 50% inhibition at 10 µM
[6] = biological target: Cytochrome P450 2E1 (Homo sapiens, UniProt P05181); details: bti-tn-5b1-4; note: in other assays of this panel Not Active means under 50% inhibition at 10 µM
Sequence of Cytochrome P450 2E1 (P05181 whole entry): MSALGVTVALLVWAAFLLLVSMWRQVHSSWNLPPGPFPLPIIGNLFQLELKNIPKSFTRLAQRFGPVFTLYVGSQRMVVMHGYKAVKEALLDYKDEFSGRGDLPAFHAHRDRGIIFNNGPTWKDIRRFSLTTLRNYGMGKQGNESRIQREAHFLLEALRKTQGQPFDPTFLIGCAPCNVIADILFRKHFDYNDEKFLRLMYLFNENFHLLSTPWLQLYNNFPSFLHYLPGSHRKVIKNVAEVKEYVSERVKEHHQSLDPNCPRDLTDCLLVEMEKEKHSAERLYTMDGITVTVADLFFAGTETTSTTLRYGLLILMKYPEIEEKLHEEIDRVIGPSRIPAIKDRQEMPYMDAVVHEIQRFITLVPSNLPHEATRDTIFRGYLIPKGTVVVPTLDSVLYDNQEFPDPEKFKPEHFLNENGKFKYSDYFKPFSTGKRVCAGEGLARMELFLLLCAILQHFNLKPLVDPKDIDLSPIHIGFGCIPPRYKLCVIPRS

NCC(CC(=O)O)c1ccc(Cl)cc1 (configuration not stated) [BACLOFEN]
IC50 [1]: Not Active
IC50 ([2]; cho-k1): Not Active
IC50 [3]: Not Active
IC50 [4]: Not Active
IC50 [5]: Not Active
Ki [5]: Not Active
IC50 [6]: Not Active
Ki [6]: Not Active

OC[C@H]1O[C@@H]2O[C@H]3[C@H](O)[C@@H](O)[C@@H](O[C@H]4[C@H](O)[C@@H](O)[C@@H](O[C@H]5[C@H](O)[C@@H](O)[C@@H](O[C@H]6[C@H](O)[C@@H](O)[C@@H](O[C@H]7[C@H](O)[C@@H](O)[C@@H](O[C@H]8[C@H](O)[C@@H](O)[C@@H](O[C@H]1[C@H](O)[C@H]2O)O[C@@H]8CO)O[C@@H]7CO)O[C@@H]6CO)O[C@@H]5CO)O[C@@H]4CO)O[C@@H]3CO [BETADEX]
IC50 [1]: Not Active
IC50 ([2]; cho-k1): Not Active
IC50 [3]: Not Active
IC50 [4]: Not Active
IC50 [5]: Not Active
Ki [5]: Not Active
IC50 [6]: Not Active
Ki [6]: Not Active

CC(C)NCC(O)COc1ccc(CC(N)=O)cc1 (configuration not stated) [ATENOLOL]
IC50 [1]: Not Active
IC50 ([2]; cho-k1): Not Active
IC50 [3]: Not Active
IC50 [4]: Not Active
IC50 [5]: Not Active
Ki [5]: Not Active
IC50 [6]: Not Active
Ki [6]: Not Active

Cl.NC[C@H]1CC[C@H](C(=O)Oc2ccc(CCC(=O)O)cc2)CC1 [CETRAXATE HYDROCHLORIDE]
IC50 [1]: Not Active
IC50 ([2]; cho-k1): Not Active
IC50 [3]: Not Active
IC50 [4]: Not Active
IC50 [5]: Not Active
Ki [5]: Not Active
IC50 [6]: Not Active
Ki [6]: Not Active

O=C(NCCN1CCOCC1)c1ccc(Cl)cc1 [MOCLOBEMIDE]
IC50 [1]: Not Active
IC50 ([2]; cho-k1): Not Active
IC50 [3]: Not Active
IC50 [4]: Not Active
IC50 [5]: Not Active
Ki [5]: Not Active
IC50 [6]: Not Active
Ki [6]: Not Active

CARBOXYMETHYLCELLULOSE
IC50 [1]: Not Active
Ki [1]: Not Active
IC50 ([2]; cho-k1): Not Active
Ki ([2]; cho-k1): Not Active
IC50 [3]: Not Active
Ki [3]: Not Active
IC50 [4]: Not Active
Ki [4]: Not Active
IC50 [5]: Not Active
Ki [5]: Not Active
IC50 [6]: Not Active
Ki [6]: Not Active

C[C@@H]1[C@H](O)[C@@H](C)/C=C/C=C/C=C/C=C/C=C/C=C/C=C/[C@H](O[C@@H]2O[C@H](C)[C@@H](O)[C@H](N)[C@@H]2O)C[C@@H]2O[C@](O)(C[C@@H](O)C[C@@H](O)[C@H](O)CC[C@@H](O)C[C@@H](O)CC(=O)O[C@H]1C)C[C@H](O)[C@H]2C(=O)O [AMPHOTERICIN B]
IC50 [1]: Not Active
IC50 ([2]; cho-k1): Not Active
IC50 [3]: Not Active
IC50 [4]: Not Active
IC50 [5]: Not Active
Ki [5]: Not Active
IC50 [6]: Not Active
Ki [6]: Not Active

CCN(CCO)CCCC(C)Nc1ccnc2cc(Cl)ccc12 (configuration not stated) [HYDROXYCHLOROQUINE]
IC50 [1]: Not Active
IC50 ([2]; cho-k1): Not Active
IC50 [3]: Not Active
IC50 [4]: Not Active
IC50 [5]: Not Active
Ki [5]: Not Active
IC50 [6]: Not Active
Ki [6]: Not Active

CCC1(c2ccccc2)C(=O)NC(=O)NC1=O [PHENOBARBITAL]
IC50 [1]: Not Active
IC50 ([2]; cho-k1): Not Active
IC50 [3]: Not Active
IC50 [4]: Not Active
IC50 [5]: Not Active
Ki [5]: Not Active
IC50 [6]: Not Active
Ki [6]: Not Active

C=CCN1CC[C@]23c4c5ccc(O)c4O[C@H]2/C(=N/N=C2\CC[C@@]4(O)[C@H]6Cc7ccc(O)c8c7[C@@]4(CCN6CC=C)[C@H]2O8)CC[C@@]3(O)[C@H]1C5 [NALOXONAZINE]
IC50 [1]: Not Active
IC50 ([2]; cho-k1): Not Active
IC50 [3]: Not Active
IC50 [4]: Not Active
IC50 [5]: Not Active
Ki [5]: Not Active
IC50 [6]: Not Active
Ki [6]: Not Active

CC(C)(C#N)c1cc(Cn2cncn2)cc(C(C)(C)C#N)c1 [ANASTROZOLE]
IC50 [1]: Not Active
IC50 ([2]; cho-k1): Not Active
IC50 [3]: Not Active
IC50 [4]: Not Active
IC50 [5]: Not Active
Ki [5]: Not Active
IC50 [6]: Not Active
Ki [6]: Not Active

OC[C@H]1O[C@@H]2O[C@H]3[C@H](O)[C@@H](O)[C@@H](O[C@H]4[C@H](O)[C@@H](O)[C@@H](O[C@H]5[C@H](O)[C@@H](O)[C@@H](O[C@H]6[C@H](O)[C@@H](O)[C@@H](O[C@H]7[C@H](O)[C@@H](O)[C@@H](O[C@H]1[C@H](O)[C@H]2O)O[C@@H]7CO)O[C@@H]6CO)O[C@@H]5CO)O[C@@H]4CO)O[C@@H]3CO [ALFADEX]
IC50 [1]: Not Active
IC50 ([2]; cho-k1): Not Active
IC50 [3]: Not Active
IC50 [4]: Not Active
IC50 [5]: Not Active
Ki [5]: Not Active
IC50 [6]: Not Active
Ki [6]: Not Active

POVIDONE
IC50 [1]: Not Active
Ki [1]: Not Active
IC50 ([2]; cho-k1): Not Active
Ki ([2]; cho-k1): Not Active
IC50 [3]: Not Active
Ki [3]: Not Active
IC50 [4]: Not Active
Ki [4]: Not Active
IC50 [5]: Not Active
Ki [5]: Not Active
IC50 [6]: Not Active
Ki [6]: Not Active

c1ccc2c(c1)Nc1ccccc1S2 [PHENOTHIAZINE]
IC50 [1]: Not Active
IC50 ([2]; read-out: IC50): 2240 nM
Ki ([2]; read-out: Ki): 1170 nM
IC50 [3]: Not Active
IC50 [4]: Not Active
IC50 [5]: Not Active
Ki [5]: Not Active
IC50 [6]: Not Active
Ki [6]: Not Active

CC[C@H]1OC(=O)[C@H](C)[C@@H](O[C@H]2C[C@@](C)(OC)[C@@H](O)[C@H](C)O2)[C@H](C)[C@@H](O[C@@H]2O[C@H](C)C[C@H](N(C)C)[C@H]2O)[C@](C)(O)C[C@@H](C)C(=O)[C@H](C)[C@@H](O)[C@]1(C)O [ERYTHROMYCIN]
IC50 [1]: Not Active
IC50 ([2]; cho-k1): Not Active
IC50 [3]: Not Active
IC50 [4]: Not Active
IC50 [5]: Not Active
Ki [5]: Not Active
IC50 [6]: Not Active
Ki [6]: Not Active

NS(=O)(=O)c1cc(C(=O)O)c(NCc2ccco2)cc1Cl [FUROSEMIDE]
IC50 [1]: Not Active
IC50 ([2]; cho-k1): Not Active
IC50 [3]: Not Active
IC50 [4]: Not Active
IC50 [5]: Not Active
Ki [5]: Not Active
IC50 [6]: Not Active
Ki [6]: Not Active

COc1cc([C@@H]2c3cc4c(cc3[C@H](O)[C@H]3COC(=O)[C@H]23)OCO4)cc(OC)c1OC [PODOFILOX]
IC50 [1]: Not Active
IC50 ([2]; cho-k1): Not Active
IC50 [3]: Not Active
IC50 [4]: Not Active
IC50 [5]: Not Active
Ki [5]: Not Active
IC50 [6]: Not Active
Ki [6]: Not Active

CC(N)Cc1c[nH]c2ccc(OCc3cccs3)cc12 (configuration not stated) [BW-723C86]
IC50 [1]: Not Active
IC50 ([2]; read-out: IC50): 204 nM
Ki ([2]; read-out: Ki): 107 nM
IC50 [3]: Not Active
IC50 [4]: Not Active
IC50 [5]: Not Active
Ki [5]: Not Active
IC50 [6]: Not Active
Ki [6]: Not Active

O=C(O)COC(=O)Cc1ccccc1Nc1c(Cl)cccc1Cl [ACECLOFENAC]
IC50 [1]: Not Active
IC50 ([2]; cho-k1): Not Active
IC50 [3]: Not Active
IC50 [4]: Not Active
IC50 [5]: Not Active
Ki [5]: Not Active
IC50 [6]: Not Active
Ki [6]: Not Active
